{"source": "patent US12435080B2", "about": "“sGC stimulators” (Tisento Therapeutics Inc., priority 2016, dated 2025)", "key": {"[1]": {"molecular_target": "T1, sGC enzyme (Homo sapiens, UniProt Q02108+Q02153)", "T1 construct": "incorporated into these cells detect cGMP formed by the compounds stimulating the sGC enzyme; host or cells: HEK293 cells stably expressing GloSensor 40F cGMP biosensor", "T1 sequence (Q02153 1-619)": "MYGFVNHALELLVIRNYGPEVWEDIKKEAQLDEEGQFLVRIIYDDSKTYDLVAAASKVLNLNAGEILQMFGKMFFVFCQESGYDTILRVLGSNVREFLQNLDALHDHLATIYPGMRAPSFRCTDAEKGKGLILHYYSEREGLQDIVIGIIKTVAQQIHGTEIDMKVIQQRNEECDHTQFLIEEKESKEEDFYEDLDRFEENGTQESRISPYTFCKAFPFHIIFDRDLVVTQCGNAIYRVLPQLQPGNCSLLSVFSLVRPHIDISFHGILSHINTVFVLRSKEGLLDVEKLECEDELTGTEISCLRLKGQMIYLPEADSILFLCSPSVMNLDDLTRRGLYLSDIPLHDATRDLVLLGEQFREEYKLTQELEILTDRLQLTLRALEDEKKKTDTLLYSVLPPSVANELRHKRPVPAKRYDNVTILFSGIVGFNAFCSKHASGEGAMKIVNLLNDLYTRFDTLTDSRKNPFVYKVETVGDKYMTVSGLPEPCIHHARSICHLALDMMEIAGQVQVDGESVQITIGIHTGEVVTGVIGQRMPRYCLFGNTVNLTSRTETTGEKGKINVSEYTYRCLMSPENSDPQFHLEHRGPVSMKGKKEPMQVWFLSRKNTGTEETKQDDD", "T1 sequence (Q02108 1-690)": "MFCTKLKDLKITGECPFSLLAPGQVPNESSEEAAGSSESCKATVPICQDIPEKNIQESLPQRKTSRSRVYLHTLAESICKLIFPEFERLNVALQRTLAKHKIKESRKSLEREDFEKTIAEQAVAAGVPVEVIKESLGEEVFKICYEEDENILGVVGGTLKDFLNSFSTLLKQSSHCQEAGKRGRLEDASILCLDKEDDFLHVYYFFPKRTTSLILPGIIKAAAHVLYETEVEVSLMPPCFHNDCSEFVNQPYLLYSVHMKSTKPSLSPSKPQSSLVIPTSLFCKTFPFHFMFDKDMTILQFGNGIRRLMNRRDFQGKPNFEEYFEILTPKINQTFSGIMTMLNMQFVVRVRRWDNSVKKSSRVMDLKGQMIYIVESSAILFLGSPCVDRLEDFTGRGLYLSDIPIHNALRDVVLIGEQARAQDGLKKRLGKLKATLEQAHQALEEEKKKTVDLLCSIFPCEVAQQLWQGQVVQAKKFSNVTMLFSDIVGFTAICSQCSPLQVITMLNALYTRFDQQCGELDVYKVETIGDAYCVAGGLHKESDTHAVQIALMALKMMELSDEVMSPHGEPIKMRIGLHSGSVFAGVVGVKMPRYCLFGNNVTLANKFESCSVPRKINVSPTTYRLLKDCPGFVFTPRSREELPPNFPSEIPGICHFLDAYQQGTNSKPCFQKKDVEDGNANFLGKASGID", "test": "cGMP GloSensor cell-based assay, 384-well format", "conditions": "HEK293 cells expressing GloSensor 40F cGMP, 10 μM DETA-NONOate, normalized to 30 μM Compound Y", "in_short": "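HEK293 cells expressing GloSensor 40F cGMP luciferase biosensor, preloaded with 2 mM GloSensor substrate for 90 min at 25 °C. Endpoint luminescence read after 55 min compound incubation at room temperature.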"}, "[2]": {"test": "Rat cerebrospinal fluid (CSF) pharmacokinetic properties", "assay_type": "in vivo", "conditions": "for concentration at 1 h: CSF, male Sprague-Dawley rats, PO 10 mg/kg in PEG400, 1 h post-dosing, read-out: CSF Conc. (nM @ 1 h); for Kp uu at 1 h: male, Sprague-Dawley, CSF and plasma (unbound), unbound CSF/unbound plasma ratio, rats, PO 10 mg/kg", "description": "PK in rats was determined following oral dosing. For the oral (PO) experiments, a group of 6 male Sprague-Dawley rats with an indwelling catheter placed in the cisterna magna were used. The PO group was dosed with 3 or 10 mg/kg of a compound formulated as a solution in PEG400. PO doses were administered by oral gavage and delivered to the stomach using a syringe and gavage tube. Following oral dosage administration, the gavage tube was flushed with approximately 0.5 mL of water to ensure complete delivery of the full dose.\nPlasma and CSF samples were collected as follows: samples of CSF and blood were collected at 1 hour and 2 hours post-dosing. CSF samples (0.05 mL) were collected through the intracisternal catheter. Blood samples (0.25 mL) were collected through retro-orbital sampling. These samples were kept on ice until processed for plasma. Blood samples were centrifuged at 3200 rpm for 5 minutes at approximately 5° C. within 1 hour of collection. Plasma was directly transferred to a 96-well plate tube (0.125 mL). Plug caps were placed on the tubes and the tubes frozen at approximately −70° C. and stored until analysis.\nPlasma was collected and analyzed for the presence of compound.\nThe compound in question and the internal standard were extracted from plasma and CSF by precipitation. Samples were analyzed using liquid chromatography (LC) with tandem mass spectrometric detection (MS/MS) using electrospray ionization. The standard curve range was from 1 to 1000 ng/mL. Results of the compounds described herein in this assay are illustrated in Tables 4A (for compounds in Table IA) and 4B (for compounds in Table IB) below.\nKp,uu is defined as the concentration ratio of unbound drug in CSF to unbound drug in plasma. Unbound drug in plasma (or free plasma concentration) is calculated by multiplying the total plasma concentration by the unbound fraction as determined by plasma protein binding. The CSF concentration is then divided by the free plasma concentration to determine the Kp,uu. (See e.g., Di et al., J. Med. Chem., 56, 2-12 (2013))"}, "[3]": {"molecular_target": "T2, sGC (Rattus norvegicus, UniProt P20595)", "T2 construct": "Rat primary neurons were isolated from fetuses of 18-day pregnant Sprague-Dawley females; endogenous in cells; host or cells: Primary rat hippocampal neurons (E18 Sprague-Dawley fetuses)", "T2 sequence (P20595 1-619)": "T1 sequence (Q02153 1-619) with N171S, E205D, N247K, T299A, K615N, D618E, D619N", "test": "cGMP neuronal cell-based assay", "conditions": "rat primary hippocampal neurons, 30 μM DETA-NO, cGMP by LC-MS/MS, normalized to 10 μM Compound Y", "description": "Rat primary neurons were isolated from fetuses of 18-day pregnant Sprague-Dawley females. The fetuses were collected in Hanks' balanced salt solution (HBSS) and brains were rapidly removed. The cerebral hippocampi were isolated and mechanically fragmented. Further tissue digestion was performed with 0.25% (wt/vol) trypsin solution in HBSS without Ca2+ and Mg2+ for 15 min at 37° C. After trypsination, cells were washed and resuspended in neurobasal medium supplemented with 0.5 mM L-glutamine, 12.5 uM glutamic acid, 2% B-27 and 100U/mL penicillin, and 100 μg/mL streptomycin. Cells were plated at a density of 4×10^4 cells/well in a poly-D-lysine coated 384-well flat clear-bottom plate (Corning Cat No 354662). Cells were incubated 6-7 days at 37° C. in a humidified chamber with 5% CO2. Media was removed and cells were washed 1× with HBSS containing Ca2+ and Mg2+, and replaced with 40 uL HBSS containing 0.5 mM IBMX, and incubated for 15 minutes at 37° C. 10 uL of a 5× stock of test compounds with diethylenetriamine NONOate (DETA-NO) was added. Final concentration of DETA-NO was 30 μM. Cells were incubated for 20 min at 37° C. Medium was removed, 50 uL of ice-cold 10% acetic acid was added, and incubated for 60 minutes at 4° C. Following centrifugation at 4° C. for 5 minutes at 1000×g to pellet cell debris, the supernatant was aspirated to a clean plate and the samples were analyzed for cGMP content. cGMP concentrations were determined from each sample using LC-MS/MS.\nData were normalized to a high control using the following equation: 100*(Sample−Low Control)/(High Control−Low Control), where the low control is the average of 15 samples treated with 1% DMSO, and the high control is the average of 15 samples treated with 10 μM of the known sGC stimulator Compound Y (depicted in Example 2). Data were fit using a 4-parameter fit (log(agonist) vs. response—variable slope) using GraphPad Prism Software v.5. n=2 for all compounds. The Absolute EC50 was interpolated from the curve fit and is defined as the concentration at which a given compound elicits 50% of the high control response after data normalization. Compounds failing to elicit a minimum response of 50% are reported as >30 μM. For compounds run in duplicate or n higher than 2, the result herein given is the geometric mean of the several results obtained."}, "[4]": {"conditions": "compounds in Table IA, read-out: Glo-sensor AbsEC50"}, "[5]": {"conditions": "compounds in Table IA, read-out: sGC-neuron Abs EC50"}, "[6]": {"conditions": "compounds in Table IB, read-out: Glo-sensor Abs EC50"}}, "note": "Changes are numbered by the printed parent chain. pEC50: −log10 of the molar value. Where two headings read alike, the source gives them in different places."}
{"compound": "N#Cc1n[nH]c(-c2nn(Cc3cccc(F)c3F)c3ncccc23)n1", "note": "[Compound I-92, 5-(1-(2,3-Difluorobenzyl)-1H-pyrazolo[3,4-b]pyridin-3-yl)-1H-1,2,4-triazole-3-carbonitrile]", "values": [{"measurement": "pEC50", "setting": "[1]; [4]", "value": "> 7.00"}, {"measurement": "concentration at 1 h", "setting": "[2]; compounds in Table IA", "value": 10.8, "unit": "nM"}, {"measurement": "Kp uu at 1 h", "setting": "[2]; compounds in Table IA", "value": 0.52}]}
{"compound": "Fc1ccc(F)c(Cc2nn(-c3nc(C(F)F)n[nH]3)c3cccnc23)c1", "note": "[Compound I-131, 3-(2,5-Difluorobenzyl)-1-(3-(difluoromethyl)-1H-1,2,4-triazol-5-yl)-1H-pyrazolo[4,3-b]pyridine]", "values": [{"measurement": "pEC50", "setting": "[1]; [4]", "value": "> 7.00"}, {"measurement": "pEC50", "setting": "[3]; [5]", "value": "≥ 7.00"}]}
{"compound": "Fc1ccccc1Cn1nc(-c2nc(C(F)F)n[nH]2)c2cccnc21", "note": "[Compound I-20, 3-(3-(Difluoromethyl)-1H-1,2,4-triazol-5-yl)-1-(2-fluorobenzyl)-1H-pyrazolo[3,4-b]pyridine]", "values": [{"measurement": "pEC50", "setting": "[1]; [4]", "value": "> 7.00"}, {"measurement": "concentration at 1 h", "setting": "[2]; compounds in Table IA", "value": 207, "unit": "nM"}, {"measurement": "Kp uu at 1 h", "setting": "[2]; compounds in Table IA", "value": 3.37}]}
{"compound": "FC(F)(F)c1n[nH]c(-c2nc(CCC(F)(F)C(F)(F)F)c3ccccn23)n1", "note": "[Compound I-9]", "values": [{"measurement": "pEC50", "setting": "[1]; [6]", "value": "6.00 to 7.00"}, {"measurement": "pEC50", "setting": "[3]; compounds in Table IB, read-out: sGC-Neuron Abs EC50", "value": "6.00 to 7.00"}]}
{"compound": "Fc1cccc(Cc2nn(-c3nc(C(F)F)n[nH]3)c3cccnc23)c1F", "note": "[Compound I-127, 3-(2,3-Difluorobenzyl)-1-(3-(difluoromethyl)-1H-1,2,4-triazol-5-yl)-1H-pyrazolo[4,3-b]pyridine]", "values": [{"measurement": "pEC50", "setting": "[1]; [4]", "value": "6.00 to 7.00"}, {"measurement": "pEC50", "setting": "[3]; [5]", "value": "≥ 7.00"}]}
{"compound": "Fc1cnc2c(c1)c(-c1nc(C(F)(F)F)n[nH]1)nn2Cc1ccccc1F", "note": "[Compound I-8, 5-Fluoro-1-(2-fluorobenzyl)-3-(3-(trifluoromethyl)-1H-1,2,4-triazol-5-yl)-1H-pyrazolo[3,4-b]pyridine]", "values": [{"measurement": "pEC50", "setting": "[1]; [4]", "value": "> 7.00"}, {"measurement": "pEC50", "setting": "[3]; [5]", "value": "≥ 7.00"}]}
{"compound": "Fc1ccc2c(Cc3cncnc3)nc(-c3nc(C(F)(F)F)n[nH]3)n2c1", "note": "[Compound I-12, 6-fluoro-1-(pyrimidin-5-ylmethyl)-3-(3-(trifluoromethyl)-1H-1,2,4-triazol-5-yl)imidazo[1,5-a]pyridine]", "values": [{"measurement": "pEC50", "setting": "[1]; [6]", "value": "> 7.00"}, {"measurement": "concentration at 1 h", "setting": "[2]; compounds in Table IB", "value": 45, "unit": "nM"}, {"measurement": "Kp uu at 1 h", "setting": "[2]; compounds in Table IB", "value": 0.16}]}
{"compound": "Fc1cncc(Cn2nc(-c3nc(C(F)(F)F)n[nH]3)c3cccnc32)c1", "note": "[Compound I-1, 1-((5-fluoropyridin-3-yl)methyl)-3-(3-(trifluoromethyl)-1H-1,2,4-triazol-5-yl)-1H-pyrazolo[3,4-b]pyridine]", "values": [{"measurement": "pEC50", "setting": "[1]; [4]", "value": "> 7.00"}, {"measurement": "concentration at 1 h", "setting": "[2]; compounds in Table IA", "value": 164, "unit": "nM"}, {"measurement": "Kp uu at 1 h", "setting": "[2]; compounds in Table IA", "value": 0.24}]}
{"compound": "FC(F)(F)c1n[nH]c(-n2nc(Cc3ccccc3)c3ncccc32)n1", "note": "[Compound I-128, 3-Benzyl-1-(3-(trifluoromethyl)-1H-1,2,4-triazol-5-yl)-1H-pyrazolo[4,3-b]pyridine]", "values": [{"measurement": "pEC50", "setting": "[1]; [4]", "value": "6.00 to 7.00"}]}
{"compound": "Cc1n[nH]c(-c2nc(Cc3cncnc3)c3ccccn23)n1", "note": "[Compound I-5, 3-(3-methyl-1H-1,2,4-triazol-5-yl)-1-(pyrimidin-5-ylmethyl)imidazo[1,5-a]pyridine]", "values": [{"measurement": "pEC50", "setting": "[1]; [6]", "value": "6.00 to 7.00"}, {"measurement": "concentration at 1 h", "setting": "[2]; compounds in Table IB", "value": 30.4, "unit": "nM"}, {"measurement": "Kp uu at 1 h", "setting": "[2]; compounds in Table IB", "value": 1.08}]}
{"compound": "FCc1n[nH]c(-c2nn(Cc3ccccc3F)c3ncccc23)n1", "note": "[Compound I-58, 1-(2-Fluorobenzyl)-3-(3-(fluoromethyl)-1H-1,2,4-triazol-5-yl)-1H-pyrazolo[3,4-b]pyridine]", "values": [{"measurement": "pEC50", "setting": "[1]; [4]", "value": "> 7.00"}]}
